A value given as a limit tells only on which side of the number the result lay.

This assay deals with T1, hTRPA1 (Homo sapiens, UniProt O75762, K186N).
T1 construct: expressed in transfected cells; host or cells: HEK293/TREx (Invitrogen), induced with tetracycline
T1 sequence (O75762 whole entry K186N): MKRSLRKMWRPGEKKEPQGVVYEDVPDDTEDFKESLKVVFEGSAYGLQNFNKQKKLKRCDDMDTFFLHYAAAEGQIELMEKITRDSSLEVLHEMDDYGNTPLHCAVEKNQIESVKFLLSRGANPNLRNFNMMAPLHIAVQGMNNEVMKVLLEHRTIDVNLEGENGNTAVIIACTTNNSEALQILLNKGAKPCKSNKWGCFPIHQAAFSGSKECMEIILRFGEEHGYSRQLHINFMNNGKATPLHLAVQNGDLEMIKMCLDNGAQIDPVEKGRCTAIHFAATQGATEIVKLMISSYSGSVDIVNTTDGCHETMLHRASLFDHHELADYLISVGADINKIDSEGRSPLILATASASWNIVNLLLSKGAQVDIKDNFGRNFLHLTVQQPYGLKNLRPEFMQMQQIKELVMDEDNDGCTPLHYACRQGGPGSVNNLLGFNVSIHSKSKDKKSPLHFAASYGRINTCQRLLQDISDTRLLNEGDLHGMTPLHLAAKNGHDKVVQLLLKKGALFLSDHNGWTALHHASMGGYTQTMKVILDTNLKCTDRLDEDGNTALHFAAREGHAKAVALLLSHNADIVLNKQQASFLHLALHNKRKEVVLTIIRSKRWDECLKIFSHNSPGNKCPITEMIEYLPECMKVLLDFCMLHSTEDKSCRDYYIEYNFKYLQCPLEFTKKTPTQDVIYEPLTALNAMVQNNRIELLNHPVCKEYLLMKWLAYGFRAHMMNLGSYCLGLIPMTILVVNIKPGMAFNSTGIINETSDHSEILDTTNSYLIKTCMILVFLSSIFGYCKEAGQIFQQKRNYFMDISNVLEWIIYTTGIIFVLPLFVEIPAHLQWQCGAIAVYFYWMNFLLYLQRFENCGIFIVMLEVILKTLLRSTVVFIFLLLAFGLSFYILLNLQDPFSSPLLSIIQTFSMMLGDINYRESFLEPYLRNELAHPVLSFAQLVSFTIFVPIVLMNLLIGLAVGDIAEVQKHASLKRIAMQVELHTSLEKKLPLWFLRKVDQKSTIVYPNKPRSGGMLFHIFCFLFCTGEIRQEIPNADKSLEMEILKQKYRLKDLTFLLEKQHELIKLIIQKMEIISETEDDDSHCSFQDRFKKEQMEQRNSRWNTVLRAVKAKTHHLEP
Description: High throughput Ca2+ fluorescence (Fluo4) assay, AITC stimulation. It is filed as cell-based. The conditions noted are these: Table 1; read-out: hTRPA1 Fluo4 IC50. An excerpt: The assay depended on detection of the rise in intracellular Ca^2+ concentration ([Ca^2+]i) following channel activation in cells inducibly expressing the TRPA1 channel. Ca^2+ rise was quantified with the use of fluorescent Ca^2+ indicators that were loaded into cells and thereafter indicated the [Ca^2+]i. Ca^2+ influx followed activation of the TRPA1 channel. Compounds inhibiting the [Ca^2+]i rise were considered hits for further investigation.
These cells were maintained in the growth medium recommended by the manufacturer supplemented with 100 μg/ml hygromycin to promote retention of the TRPA1 construct. After growing to near confluency, cells were plated at a density of ˜25,000 cells/well in 384 well CellBind plates (Corning) in the presence of 1 μg/ml tetracycline, and allowed to grow for 20-30 hrs. A nearly confluent monolayer resulted. Cells were then loaded with Ca^2+ dye: Fura-2/AM or Fluo4/AM was added to the wells to a final concentration of 2 μM or 1 μM, respectively, and incubated for 80 min or 60 min, respectively, at room temperature. […] Frames were acquired at a rate of 0.2 Hz. During the assay, the plates were continuously […], with pipette mixing of wells following addition of each reagent. For the screening assay, 13 μl of a diluted stock (at 50 μM) was added to each well for 2 minutes following the collection of a short (4 frame) baseline. […] Data was collected for ˜3 minutes following addition of AITC, where the fluorescent intensity (for Fluo4) and the F340/F380 ratio (for Fura-2) were proportional to the [Ca^2+]i. Negative controls consisted of HEK293/TREx TRPA1 cells exposed to AITC, but no compound. […] These controls defined a screening window, and “hits” were defined as those compounds inhibiting the fluorescence response by at least 40%. IC50 values were determined for compounds defined as “hits.” The Fluo4 cell-based fluorescence assay was used to determine the intracellular Ca^2+ concentration in the presence of varying drug concentration. […] Compounds were tested in triplicate at all concentrations. Standard software was used to fit IC50 curves.
For `CC1=C(C(=O)N2CCOCC2)C(c2ccc(Cl)cc2)NC(=O)N1` (stereo not drawn), the IC50 was more than 10 µM.

In the case of `CC1=C(C(=O)N2CCOCC2)C(c2cccc(F)c2)NC(=O)N1` (stereo not drawn), the IC50 is not above 5 µM.

In the case of `CCOC(=O)C1=C(C)NC(=S)NC1c1ccc(O)c(OC)c1` (stereo not drawn), the IC50 is not above 10 µM.

Turning to `CCOC(=O)C1=C(C)NC(=S)NC1c1ccc(N(C)C)cc1` (stereo not drawn), the IC50 is more than 10 µM.

Turning to `COC(=O)C1=C(C)NC(=O)NC1c1ccccc1OC` (stereo not drawn), the half-maximal inhibitory concentration (IC50) was more than 10 µM.

For `CCOC(=O)C1=C(C)NC(=S)NC1c1ccccc1` (stereo not drawn), the half-maximal inhibitory concentration (IC50) is more than 10 µM.

On to `COC(=O)C1=C(C)NC(=O)NC1c1ccc(O)c(OC)c1` (stereo not drawn), for which the IC50 is more than 10 µM.

Take `CC1=C(C(=O)Nc2ccccc2)C(c2ccc(F)cc2)NC(=S)N1` (stereo not drawn): the IC50 is not below 30 µM.

Take `CC1=C(C(=O)Nc2ccccc2)C(c2ccccc2)NC(=S)N1` (stereo not drawn): the IC50 was not below 30 µM.

For the molecule `CC1=C(C(=O)Nc2ccccc2)C(c2ccc(Br)cc2)NC(=S)N1` (stereo not drawn), the IC50 was more than 10 µM.

With `CCOC(=O)C1=C(C)NC(=S)NC1c1ccc(OC)c(OC)c1` (stereo not drawn), the IC50 is more than 10 µM.

As for `CCOC(=O)C1=C(c2ccccc2)NC(=S)NC1c1ccccc1` (stereo not drawn), the IC50 is not above 10 µM.

On to `COC(=O)C1=C(C)NC(=O)NC1c1ccc(O)cc1` (stereo not drawn), for which the IC50 was more than 10 µM.

`CCOc1ccccc1C1NC(=O)NC(C)=C1C(=O)OC` (stereo not drawn): the IC50 was more than 10 µM.

Turning to `CCOC(=O)C1=C(C)NC(=O)NC1c1ccc(O)cc1` (stereo not drawn), the IC50 is more than 10 µM.

For `CCOC(=O)C1=C(C)NC(=S)NC1c1cc(OC)ccc1OC` (stereo not drawn), the IC50 is more than 10 µM.

Regarding `CCOC(=O)C1=C(C)NC(=O)NC1c1ccc(OCC)cc1` (stereo not drawn), the IC50 is more than 10 µM.

Turning to `CC1=C(C(=O)OC(C)C)C(c2ccccc2F)NC(=S)N1` (stereo not drawn), the IC50 was more than 10 µM.

`CC1=C(C(=O)OC(C)C)C(c2c(O)ccc3ccccc23)NC(=S)N1` (stereo not drawn): the IC50 is more than 10 µM.

Take `CCOC(=O)C1=C(C)NC(=S)NC1c1ccc(O)cc1` (stereo not drawn): the 50% inhibitory concentration (IC50) was more than 10 µM.

For the molecule `CCOC(=O)C1=C(c2ccccc2)NC(=S)NC1c1ccc(SC)cc1` (stereo not drawn), the IC50 is not above 5 µM.

Take `CCOC(=O)C1=C(c2ccccc2)NC(=S)NC1c1cccc(OC)c1OC` (stereo not drawn): the concentration for half-maximal inhibition (IC50) was more than 10 µM.

For the molecule `CCOC(=O)C1=C(c2ccccc2)NC(=S)NC1c1ccc(OCC)cc1` (stereo not drawn), the IC50 was more than 10 µM.

As to `COc1cccc(C2NC(=S)NC(C)=C2C(=O)OCc2ccccc2)c1` (stereo not drawn), the IC50 was more than 10 µM.

As for `CCOC(=O)C1=C(c2ccccc2)NC(=S)NC1c1ccccc1OC` (stereo not drawn), the IC50 is more than 10 µM.

Regarding `CCOC(=O)C1=C(c2ccccc2)NC(=O)NC1c1ccccc1F` (stereo not drawn), the IC50 is more than 10 µM.

On to `COC(=O)C1=C(C)N(C)C(=O)NC1c1cccc(Cl)c1` (stereo not drawn), for which the IC50 is more than 10 µM.

As for `CCOC(=O)C1=C(C)NC(=S)NC1c1ccc(CC)cc1` (stereo not drawn), the IC50 was more than 10 µM.

With `COC(=O)C1=C(C)N(C)C(=O)NC1c1ccc(C(C)(C)C)cc1` (stereo not drawn), the 50% inhibitory concentration (IC50) is more than 10 µM.

Regarding `CCOC(=O)C1=C(C)NC(=S)NC1c1cc(OC)ccc1Br` (stereo not drawn), the IC50 was more than 10 µM.

For `CCOC(=O)C1=C(C)NC(=S)NC1c1cc(C)ccc1C` (stereo not drawn), the IC50 is more than 10 µM.

`COC(=O)C1=C(C)N(C)C(=O)NC1c1cc(Br)ccc1F` (stereo not drawn): the IC50 is more than 10 µM.

Consider `CCC(C)OC(=O)C1=C(C)NC(=O)NC1c1ccc(C(F)(F)F)cc1` (stereo not drawn), for which the IC50 is not above 10 µM.

`CCCC1=C(C(=O)OCC)C(c2cccc([N+](=O)[O-])c2)NC(=O)N1C` (stereo not drawn): the IC50 was more than 10 µM.

Turning to `COC(=O)C1=C(C)NC(=O)NC1c1cc(C)ccc1C` (stereo not drawn), the IC50 is more than 10 µM.

Consider `COC(=O)C1=C(C)NC(=O)NC1c1ccc(C(C)(C)C)cc1` (stereo not drawn), for which the IC50 is more than 10 µM.

Turning to `COC(=O)C1=C(C)NC(=O)NC1c1ccc2ccccc2c1` (stereo not drawn), the 50% inhibitory concentration (IC50) is more than 10 µM.

For the molecule `CC1=C(C(=O)OC(C)(C)C)C(c2cccc(Br)c2)NC(=O)N1` (stereo not drawn), the IC50 was more than 10 µM.

With `CC1=C(C(=O)OC(C)(C)C)C(c2ccccc2Cl)NC(=O)N1` (stereo not drawn), the IC50 was more than 10 µM.

With `CCN(CC)C(=O)C1=C(C)NC(=S)NC1c1ccccc1OC` (stereo not drawn), the IC50 is more than 10 µM.

Consider `CCN(CC)C(=O)C1=C(C)NC(=S)NC1c1ccccc1` (stereo not drawn), for which the IC50 is more than 10 µM.

With `CCOC(=O)C1=C(C)N(C)C(=S)NC1c1cccc(Cl)c1Cl` (stereo not drawn), the IC50 was more than 10 µM.

A word on the IC50: it is the concentration needed to halve the response being measured.

The values above are taken from patent publication US7671061B2, “Methods and compositions for treating pain” (Hydra Biosciences, Inc., priority 2005, dated 2010).
